Laboratory results: US20050220836A1, “Drug delivery device” (priority 2004, published 2005)
Each block holds one molecule with its values, some of them ahead of it.

Columns and labels:
[1] = test system: human smooth muscle cells; test: Cladribine example, PDGF-stimulated cell proliferation, smooth muscle cells; format: cell-based; details: for % of PDGF-stimulated increase in cell count: SMC, day six, mean of triplicate
Experimental: (§1) To assess the ability of cladribine to prevent cell proliferation, human smooth muscle or endothelial cells (Clonetics, Walkersville, Md.) were seeded at a density of 2000 cells/cm^2 (approximately 3600 cells/well) into each well of 12-well plates and cultured with 1.5 ml of growth medium containing five percent fetal calf serum (FCS). After twenty-four hours, the growth medium was changed and fresh medium containing 10 ng/ml platelet-derived growth factor AB (PDGF AB; LIFE Technologies), as well as various concentrations of cladribine (0.001-10,000 nM) were added with triplicate wells. Medium was replaced with fresh cladribine-containing medium after three days. On day six, cells were detached by trypsinization to yield a cell suspension, lightly centrifuged to pellet and then counted manually using a Neubauer hemocytometer system. Cell viability was assessed by trypan blue exclusion.

human endothelial cells = test: Cladribine example, PDGF-stimulated cell proliferation, endothelial cells; format: cell-based; details: for % of PDGF-stimulated increase in cell count: EC, day six, mean of triplicate
Experimental: as §1

[2] = test system: human coronary artery smooth muscle cells; test: anti-proliferative activity in non-synchronized cultured cells stimulated with two percent fetal bovine serum; format: cell-based
Excerpt: The multiple curves represent various concentrations of mycophenolic acid ranging from zero to one thousand nanomolar concentrations.
FIG. 58 illustrates, in graphical format, the anti-proliferative activity of cladribine in non-synchronized cultured human coronary artery smooth muscle cells stimulated with two percent fetal bovine serum.
The multiple curves represent various concentrations of cladribine ranging from zero to nine hundred nanomolar concentrations.

[3] = in vivo release kinetics of cladribine from polymeric stent coatings; set-up: species or system Yorkshire pig; details: Bx Velocity stents
Excerpt: FIG. 61 is a graphical representation of the in vivo release kinetics of cladribine from a polymeric coating on BxVelocity® stents, available from Cordis Corporation, implanted in a Yorkshire pig. The basecoat comprises an 85/15 ratio of PVDF and HFP and cladribine for a total combined weight of one thousand eight hundred micrograms (cladribine comprising thirty percent of the total weight). […]
(§2) The basecoat is applied to Bx Velocity® stents and implanted into Yorkshire pigs.
as §2

[4] = test system: human coronary artery smooth muscle cells; test: anti-proliferative activity in synchronized cultured cells stimulated with two percent fetal bovine serum; format: cell-based
Excerpt: (§3) The multiple curves represent various concentrations of topotecan ranging from zero to three hundred nanomolar concentrations.
(§4) The multiple curves represent various concentrations of etoposide ranging from zero to eight hundred nanomolar concentrations.
The multiple curves represent various concentrations of Panzem® ranging from zero to 100 micromolar concentrations.

cell viability = cell viability assay; format: cell-based
Excerpt: as §3, §4

[5] = in vivo release kinetics from rapamycin, mycophenolic acid and polymer coating, porcine pharmacokinetics studies; details: 180 micrograms each drug, with or without BMA topcoat
[6] = test system: human coronary artery smooth muscle cell proliferation; test: in vitro cell culture study, coronary artery smooth muscle cell proliferation; format: cell-based
Excerpt: FIG. 51 is a graph of the inhibition of coronary artery smooth muscle cells by trichostatin A in a cell culture study.

tumor cell lines = tumor cell lines (Woo et al., 2002); cited from earlier work

elution from PVDF/HFP (85/15) coating ([3]; Yorkshire pig, 1800 microgram basecoat with thirty percent cladribine, 300 microgram topcoat): levels off significantly
elution from EVA/BMA basecoat compared with rapamycin ([3]; Yorkshire pigs, 200 microgram BMA topcoat): elutes more rapidly than rapamycin
SMILES: Nc1nc(Cl)nc2c1ncn2[C@H]1C[C@H](O)[C@@H](CO)O1 [Cladribine, 2-chlorodeoxyadenosine]
IC50 ([1]; Homo sapiens, PDGF AB stimulated, reduction to 50 percent of vehicle-treated cell count, read-out: IC50 for inhibition of smooth muscle cell growth): 23 nM
% of PDGF-stimulated increase in cell count ([1]; cladribine 0.01 nM): 104%
% of PDGF-stimulated increase in cell count ([1]; cladribine 0.1 nM): 86%
% of PDGF-stimulated increase in cell count ([1]; cladribine 1 nM): 85%
% of PDGF-stimulated increase in cell count ([1]; cladribine 10 nM): 54%
% of PDGF-stimulated increase in cell count ([1]; cladribine 100 nM): 58%
% of PDGF-stimulated increase in cell count ([1]; cladribine 1000 nM): 12%
% of PDGF-stimulated increase in cell count ([1]; cladribine 10,000 nM): −4%
potency on smooth muscle cells relative to endothelial cells ([1]; from the IC50 values): approximately twice as potent
% of PDGF-stimulated increase in cell count (human endothelial cells; cladribine 0.001 nM): 100%
% of PDGF-stimulated increase in cell count (human endothelial cells; cladribine 0.01 nM): 90%
% of PDGF-stimulated increase in cell count (human endothelial cells; cladribine 0.1 nM): 79%
% of PDGF-stimulated increase in cell count (human endothelial cells; cladribine 1 nM): 75%
% of PDGF-stimulated increase in cell count (human endothelial cells; cladribine 10 nM): 59%
% of PDGF-stimulated increase in cell count (human endothelial cells; cladribine 100 nM): 57%
% of PDGF-stimulated increase in cell count (human endothelial cells; cladribine 1000 nM): 35%
% of PDGF-stimulated increase in cell count (human endothelial cells; cladribine 10,000 nM): 10%
IC50 (human endothelial cells; Homo sapiens, Endothelial cell, PDGF AB stimulated, reduction to 50 percent of vehicle-treated cell count, read-out: IC50 for inhibition of endothelial cell growth): 40 nM
effect of addition on anti-proliferative activity of rapamycin ([2]; cladribine zero to nine hundred nanomolar added to rapamycin, non-synchronized cells): increases the percent inhibition of rapamycin alone
inhibition of human coronary artery smooth muscle cell proliferation ([2]; non-synchronized cells, two percent fetal bovine serum): completely inhibits
IC50 ([2]; non-synchronized human coronary artery smooth muscle cells, two percent fetal bovine serum): ~241 nM

SMILES: COc1cc([C@@H]2c3cc4c(cc3[C@@H](O[C@@H]3O[C@@H]5CO[C@@H](C)O[C@H]5[C@H](O)[C@H]3O)[C@H]3COC(=O)[C@H]23)OCO4)cc(OC)c1O [Etoposide, etoposide]
effect of addition on anti-proliferative activity of rapamycin ([4]; etoposide zero to eight hundred nanomolar added to rapamycin): increases the percent inhibition of rapamycin alone
cytotoxicity (cell viability; at concentrations up to ten micromolar): non-cytotoxic

SMILES: COc1cc2c(cc1O)CC[C@@H]1[C@@H]2CC[C@]2(C)[C@@H](O)CC[C@@H]12 [Panzem®, 2-methoxyestradiol]
effect of addition on anti-proliferative activity of rapamycin ([4]; Panzem zero to 100 micromolar added to rapamycin): increases the percent of inhibition of rapamycin alone
anti-proliferative activity alone ([4]; two percent fetal bovine serum): extremely effective inhibitor

SMILES: CC[C@@]1(O)C(=O)OCc2c1cc1n(c2=O)Cc2cc3c(CN(C)C)c(O)ccc3nc2-1 [Topotecan, topotecan]
effect of addition on anti-proliferative activity of rapamycin ([4]; topotecan zero to three hundred nanomolar added to rapamycin): increases the percent inhibition of rapamycin alone
cytotoxicity (cell viability; at concentrations up to one micromolar): non-cytotoxic

SMILES: COc1c(C)c2c(c(O)c1C/C=C(\C)CCC(=O)O)C(=O)OC2 [mycophenolic acid]
effect of addition on anti-proliferative activity of rapamycin ([2]; mycophenolic acid zero to one thousand nanomolar added to rapamycin, non-synchronized cells): potentiates the anti-proliferative activity of rapamycin
release from EVA/BMA basecoat compared with rapamycin [5]: elutes more completely over a shorter duration than the rapamycin

SMILES: CC(/C=C/C(=O)NO)=C\[C@@H](C)C(=O)c1ccc(N(C)C)cc1 [trichostatin A]
IC50 ([6]; human coronary artery smooth muscle cells, cell culture, read-out: anti-proliferative IC50): ~6 nM
inhibition of human coronary artery smooth muscle cell proliferation ([6]; in vitro cell culture): completely inhibit
anti-proliferative IC50 (tumor cell lines): low nM range
